Values quoted from earlier work in patent publication US20210002295A1, “SMALL MOLECULE DEGRADERS THAT RECRUIT DCAF15” (Dana-Farber Cancer Institute, Inc., priority 2017, published 2021).

Biological target: bromodomains of BET proteins
Conditions: stated for small molecule BET inhibitors

In the case of `Cc1sc2c(c1C)C(c1ccc(Cl)cc1)=N[C@@H](CC(=O)OC(C)(C)C)c1nnc(C)n1-2` [JQ1], the Kd is given as about 10 nM.
